The record followed here is patent publication US9095616B2, “Caged platinum nanoclusters for anticancer chemotherapeutics” (priority 2013, dated 2015).

Data set [1] in a line: Maximal tolerated dose (Table 1). Format: in vivo. The settings on record: IV injection. On the procedure:
The therapeutic efficacy of CPN using subcutaneous breast cancer xenograft in mice was evaluated by intratumoral (IT) injection. The maximal tolerated dose (MTD) of various drugs, such as CPN and cisplatin, was described in Table 1. […] Thus, the programmed death pathway of CPN-treated cells might be similar to that of cisplatin-treated cells. We verified whether the CPN could be injected into blood vessels to exert tumor-inside activation for anticancer chemotherapeutics. Thus, the CPN was extra coated with a cleavable PEG layer to prevent protein adhesions after intravenous (i.v.) injection to form a double-caged PN (DCPN). […] To render the DCPN with a targeting function, an iRGD tumor-penetrating peptide was co-administered with the DCPN into subcutaneous xenograft nude mice of breast cancer by IV administration. The tumor size in each mouse was grown to about 150 mm^3 to facilitate DCPN delivery. Additionally, the DCPN and one of the control groups (G2NH2 coated with a PEG corona) were pre-attached with as NIR dye, cy5.5, for real-time tracking alter administration. […] Consecutive tissue sections front four groups, including the control, cisplatin, G2NH2, and DCPN groups were examined histologically by hematoxylin and eosin (H&E) staining at the end point, and the slides were evaluated by an independent pathologist (FIG. 16). […]

Data set [2] concerns subcutaneous breast cancer xenograft. Kind of data set: Tumor suppression after IT injection. The data set is classed as in vivo, Balb/c nude mice. The settings on record: IT injection once a week for 3 weeks, vs PBS and G2NH2. Here is the method: (§1) Seven-week-old female Balb/c nude mice (16-20 g) were kept on a 12-h light/12-h dark cycle at 24±2° C. and 50±10% relative humidity, with free access to water and food. They were subcutaneously injected with […] cells/mouse to establish a breast tumor model. Tumors were measured by a digital Vernier caliper across each tumor's longest (a) and shortest (b) diameter, and tumor volume (V) was calculated by the formula V=0.5a×b^2. When the tumor size reached approximately 60 mm^3 and 150 mm^3, CPN and DCPN were administered by IT and IV injection, respectively. The stud of comparative efficiency in tumor suppression was performed. The mice were treated with CPN via IT injections once a week for a total of 3 weeks. Similarity. DCPN was administered to mice via IV once a week for 4 weeks. The injection volume was 5 μL/g body weight and the tumor size was calculated every 2 to 3 days. After the mice were sacrificed, tumors and blood were collected and placed in EDTA glass tubes.

Data set [3] has the same test system. Kind of data set: Active caspase-3 immunohistochemistry of tumor tissue. The data set is classed as in vivo, Balb/c nude mice. On the procedure: The frozen sections of tumor tissue (4 μm thick) were warm up to room temperature washed 3 times with PBS (5 min/time), and fixed with freshly prepared 4% paraformaldehyde in PBS for 15 minutes. The fixed sections were immersed in a polyclonal rabbit anti-mouse active caspase-3 antibody (Abeam Inc., ab2302, 5 μg/mL in 10% BSA of PBS, 50 μL/sample) at 4° C. for overnight, followed by washing with PBS (three times, 15 min/time) and incubating with peroxidase-conjugated polyclonal goat anti-rabbit antibodies (Abeam Inc., ab6721-200, 1:500 (v/v) in PBS, 100 μL/sample) at room temperature for 2 hours. These slides were first stained with DAB, subsequently counterstained with hematoxylin, and mounted with glass coverslisps before monitoring by light microscopy.

Data set [4] has as its system subcutaneous xenograft of breast cancer. Kind of data set: Tumor suppression after IV injection with iRGD co-administration. The data set is classed as in vivo, Balb/c nude mice. The settings on record: IV 16.6 μmol/kg at 7-day intervals, 4 weeks, iRGD co-administered, vs PBS and G2NH2. On the procedure:
as §1
The therapeutic efficacy of CPN using subcutaneous breast cancer xenograft in mice was evaluated by intratumoral (IT) injection. […] Consecutive tissue sections front four groups, including the control, cisplatin, G2NH2, and DCPN groups were examined histologically by hematoxylin and eosin (H&E) staining at the end point, and the slides were evaluated by an independent pathologist (FIG. 16). […]

Another data set concerns MDA-MB-231 cell line. Kind of data set: ROS assay using CM-H2DCFDA. The data set is classed as cell-based, human. The settings on record: 3 h. On the procedure: MDA-MB-231 cell line was cultured in RPMI 1640 medium (media were supplemented with 10% fetal bovine serum) under 5% CO2 atmosphere at 37° C. The cells were inoculated with 1×10^5 cells per well in a 6-well cell-culture plate and cultivated at 37° C. for 24 h. Then, the culture medium was changed with the presence of various treatments, including […] alone, the CPN, cisplatin, and 0.03% H2O2 in the culture medium. The tests were performed for 3 h without changing the medium. After removal of the supernatant of cell culture medium, the cells were isolated for ROS assay using CM-H2DCFDA from INVITROGENTM.

In another data set the test system is MDA-MB-231. The experiment in a line: MTT cytotoxicity. Format: cell-based, human. The conditions noted are these: MDA-MB-231, 3 d. Here is the method:
Cells of the MDA-MB-231 line (Bioresource Collection and Research Center, Taiwan) were cultured in RPMI 1640 medium supplemented with 10% fetal bovine serum under 5% CO2 atmosphere at 37° C. Twenty-four-well cell culture plates were inoculated with 1×10^5 cells/well and kept at 37° C. for 24 h. The culture medium was changed in the presence of various concentrations of different treatments ([…] alone, carboplatin, cisplatin, and CPN) in culture medium (three replicates). The tests were performed for 3 d without changing the medium. After the overlaying cell-culture medium was removed, the cells were incubated with 3-(4,5-dimethylthiazol-2-yl)-2,5-diphenyltetrazolium bromide (MTT, Sigma, Mo. USA) at 37° C. for 1 h. After treatment, the fomazan product from MTT was dissolved in DMSO and quantified using a conventional ELISA reader at 570 nm. For calibration, a blank test was performed in a 24-well plate under the same conditions.

The test system of data set [5] is subcutaneous breast cancer xenograft. The experiment in a line: TUNEL assay of tumor tissue. Format: in vivo, Balb/c nude mice. The conditions noted are these: after treatment for 48 hours. From the text: Terminal dexoxynucleotidyl […]-mediated dUTP nick end labeling (TUNEL) assay was used for in situ detection of apoptotic cell death. The frozen sections of tumor tissue (4 μm thick) were warmed up to room temperature. The slides were washed 3 times with PBS to remove OCT (one of tumor's embedded medium for frozen tissues). The labeling procedures followed the standard protocol of this kit. These slides were stained with 3,3'-diaminobenzidne (DAB, Thermo, S21024-2), then counterstained with hematoxylin and mounted onto glass coverslisps before monitoring by light microscopy.

For orientation: IC50 means the concentration that gives 50% inhibition.

With `N.N.[Cl][Pt][Cl]` [cisplatin], the “maximal tolerated dose (MTD)” value in data set [1] stood at 16.6 µmol/kg. Besides, the tumor suppression entry in data set [2] is on record as “notably efficacious in tumor suppression”. The “apoptosis by active caspase-3 immunostaining” value in data set [3] is “can indeed cause apoptosis”. Also, the “tumor growth / tumor volume” value in data set [4] is on record as “can indeed cause tumors to shrink”. Besides, in the data set with MDA-MB-231 cell line, the ROS production entry is “no significant ROS increase or decrease”. The compound further yielded an IC50 in the data set on MDA-MB-231 of 7 µg/mL. Further, the “TUNEL staining (broken DNA strands)” value in data set [5] is recorded as “TUNEL-positive staining”.

Take `N.N.O=C([O-])C1(C(=O)[O-])CCC1.[Pt+2]` [carboplatin]: the half-inhibitory concentration (IC50) in the data set on MDA-MB-231 is 35 µg/mL.
